The target in assay [1] is GDP-loaded KRAS G12D (Homo sapiens (Human), UniProt P01116, G12D). The assay is described as follows: KRAS G12D (GDP) biochemical assay (TR-FRET probe displacement). The following applies: 2 hours. It counts as binding. Summed up: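 TR-FRET probe displacement: 1:3 DMSO serial dilutions pre-incubated 30 min with GDP-bound KRAS G12D, followed by Eu-streptavidin/probe for 2 h at room temperature (Hepes pH 7.4, NaCl, MgCl2, Tween-20 buffer). IC50 defined as concentration halving TR-FRET ratio, from sigmoidal dose-response fit.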
(In general: Time-resolved FRET reads energy transfer from a long-lived donor to a nearby acceptor.)

The test system of assay [2] is GP2D (KRAS G12D) cells. The assay is described as follows: 2D cell viability assay (CellTiter-Glo). The following applies: GP2d, 96 h, 4 days. It counts as cell-based. The gist of the method:
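Viability was read by CellTiter-Glo after 4 days at 37 °C of 2D culture of KRAS G12D GP2D cells (1000/well, RPMI, 10% FBS) on pre-spotted threefold compound dilutions. EC50 was fitted with a sigmoidal dose-response model as the point of half-maximal luminescence loss.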
On the technique in general: Cellular ATP, detected with luciferase, serves as a proxy for viable cell number.

The values that follow come from patent US20230339981A1, “KRAS G12D MODULATING COMPOUNDS” (priority 2022, published 2023).

Molecules are shown by their SMILES. Some results are limits rather than exact numbers.

Chain of GDP-loaded KRAS G12D (P01116-2 other isoform, or with tags, fused parts or gaps G12D): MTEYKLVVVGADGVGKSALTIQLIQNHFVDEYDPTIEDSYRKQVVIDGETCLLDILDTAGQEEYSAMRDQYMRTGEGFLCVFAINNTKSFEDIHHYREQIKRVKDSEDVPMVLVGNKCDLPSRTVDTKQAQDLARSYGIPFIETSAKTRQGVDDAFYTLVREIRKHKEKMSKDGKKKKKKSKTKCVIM

One may read the IC50 as the concentration that gives 50% inhibition. As usually defined, the EC50 is the concentration that produces a half-maximal response. Higher therefore signals weaker potency. In assay [1], `C#Cc1c(F)ccc2cc(O)cc(-c3nc4c5c(nc(OC[C@@]67CCCN6C[C@H](F)C7)nc5c3F)N3C[C@H]5CC[C@H](N5)[C@H]3[C@@H](C)O4)c12` [Example 61, 5-ethynyl-6-fluoro-4-((5R,5aS,6S,9R)-1-fluoro-12-(((2R,7aS)-2-fluorotetrahydro-1H-pyrrolizin-7a(5H)-yl)methoxy)-5-methyl-5a,6,7,8,9,10-hexahydro-5H-4-oxa-3,10a,11,13,14-pentaaza-6,9-methanonaphtho[1,8-ab]heptalen-2-yl)naphthalen-2-ol] gave an IC50 of 26 nM. Further, in assay [2], the half-maximal effective concentration (EC50) is 520 nM.

In assay [1], `C#Cc1c(F)c(F)cc2cccc(-c3nc4c5c(nc(OC[C@@]67CCCN6C[C@H](F)C7)nc5c3F)N3C[C@H]5CC[C@H](N5)[C@H]3CO4)c12` [Example 62, (5aS,6S,9R)-2-(8-ethynyl-6,7-difluoronaphthalen-1-yl)-1-fluoro-12-(((2R,7aS)-2-fluorotetrahydro-1H-pyrrolizin-7a(5H)-yl)methoxy)-5a,6,7,8,9,10-hexahydro-5H-4-oxa-3,10a,11,13,14-pentaaza-6,9-methanonaphtho[1,8-ab]heptalene] had an IC50 of 7 nM. Moreover, in assay [2], it took 79 nM to reach a half-maximal effect (EC50).

The compound `C#Cc1c(F)ccc2cc(O)cc(-c3nc4c5c(nc(OC[C@@]67CCCN6[C@H](COC(C(F)(F)F)(C(F)(F)F)C(F)(F)F)CC7)nc5c3F)N3C[C@H]5CC[C@H](N5)[C@H]3CC4)c12` [Example 63, 5-ethynyl-6-fluoro-4-((5aR,6S,9R)-1-fluoro-12-(((3S,7aS)-3-(((1,1,1,3,3,3-hexafluoro-2-(trifluoromethyl)propan-2-yl)oxy)methyl)tetrahydro-1H-pyrrolizin-7a(5H)-yl)methoxy)-4,5,5a,6,7,8,9,10-octahydro-3,10a,11,13,14-pentaaza-6,9-methanonaphtho[1,8-ab]heptalen-2-yl)naphthalen-2-ol] registered an IC50 in assay [1] of 0.2 nM. A half-maximal effect in assay [2] (EC50) was put at 0.2 nM.

In the case of `C#Cc1c(F)ccc2cc(O)cc(-c3nc4c5c(nc(OC[C@@]67CCCN6C[C@H](F)C7)nc5c3F)N3C[C@H]5CC[C@H](N5)[C@@H]3[C@@H](C)C4)c12` [Example 64, 5-ethynyl-6-fluoro-4-((5S,5aS,6S,9R)-1-fluoro-12-(((2R,7aS)-2-fluorotetrahydro-1H-pyrrolizin-7a(5H)-yl)methoxy)-5-methyl-4,5,5a,6,7,8,9,10-octahydro-3,10a,11,13,14-pentaaza-6,9-methanonaphtho[1,8-ab]heptalen-2-yl)naphthalen-2-ol], in assay [1], the IC50 came out at 0.1 nM. The same compound registered an EC50 in assay [2] of 0.3 nM.

In assay [1], `Fc1ccc2c(-c3nc4c5c(nc(OC[C@@]67CCCN6C[C@H](F)C7)nc5c3F)N3C[C@H]5CC[C@H](N5)[C@H]3CO4)cccc2c1` [Example 66, (5aS,6S,9R)-1-fluoro-2-(6-fluoronaphthalen-1-yl)-12-(((2R,7aS)-2-fluorotetrahydro-1H-pyrrolizin-7a(5H)-yl)methoxy)-5a,6,7,8,9,10-hexahydro-5H-4-oxa-3,10a,11,13,14-pentaaza-6,9-methanonaphtho[1,8-ab]heptalene] came in with an IC50 of 860 nM. In assay [2], the EC50 was above 1000 nM.

`C#Cc1c(F)ccc2cc(O)cc(-c3nc4c5c(nc(OCC6(CN7CCC[C@@H](F)C7)CC6)nc5c3F)N3C[C@H]5CC[C@H](N5)[C@H]3CC4)c12` [Example 67] yielded an IC50 in assay [1] of 0.08 nM. Also, in assay [2], the half-maximal effective concentration (EC50) was determined as 1 nM.

As to `C#Cc1c(F)ccc2cc(O)cc(-c3nc4c5c(nc(OCC6(CN7CCC(F)CC7)CC6)nc5c3F)N3C[C@H]5CC[C@H](N5)[C@H]3CC4)c12` [Example 68, 5-ethynyl-6-fluoro-4-((5aR,6S,9R)-1-fluoro-12-((1-((4-fluoropiperidin-1-yl)methyl)cyclopropyl)methoxy)-4,5,5a,6,7,8,9,10-octahydro-3,10a,11,13,14-pentaaza-6,9-methanonaphtho[1,8-ab]heptalen-2-yl)naphthalen-2-ol], the IC50 in assay [1] turned out to be 0.05 nM. Also, a half-maximal effect in assay [2] (EC50) was put at 0.6 nM.

In the case of `C#Cc1c(F)ccc2cc(O)cc(-c3nc4c5c(nc(OCC6(CN7CCC(C(F)(F)F)CC7)CC6)nc5c3F)N3C[C@H]5CC[C@H](N5)[C@H]3CC4)c12` [Example 69, 5-ethynyl-6-fluoro-4-((5aR,6S,9R)-1-fluoro-12-((1-((4-(trifluoromethyl)piperidin-1-yl)methyl)cyclopropyl)methoxy)-4,5,5a,6,7,8,9,10-octahydro-3,10a,11,13,14-pentaaza-6,9-methanonaphtho[1,8-ab]heptalen-2-yl)naphthalen-2-ol], the IC50 in assay [1] was determined as 0.1 nM. Also, the EC50 in assay [2] worked out at 0.6 nM.

The compound `C#Cc1c(F)ccc2cc(O)cc(-c3nc4c5c(nc(OCC6(CN7CC[C@@H](C(F)(F)F)C7)CC6)nc5c3F)N3C[C@H]5CC[C@H](N5)[C@H]3CC4)c12` [Example 70, 5-ethynyl-6-fluoro-4-((5aR,6S,9R)-1-fluoro-12-((1-(((R)-3-(trifluoromethyl)pyrrolidin-1-yl)methyl)cyclopropyl)methoxy)-4,5,5a,6,7,8,9,10-octahydro-3,10a,11,13,14-pentaaza-6,9-methanonaphtho[1,8-ab]heptalen-2-yl)naphthalen-2-ol] yielded a 50% inhibitory concentration (IC50) in assay [1] of 0.1 nM. Besides, the EC50 in assay [2] came to 1 nM.

With `C#Cc1c(F)ccc2cc(O)cc(-c3nc4c5c(nc(OC[C@@]67CCCN6C[C@H](F)C7)nc5c3F)N3C[C@H]5CC[C@H](N5)[C@H]3[C@H](C3CC3)O4)c12` [Example 71, 4-((5S,5aS,6S,9R)-5-cyclopropyl-1-fluoro-12-(((2R,7aS)-2-fluorotetrahydro-1H-pyrrolizin-7a(5H)-yl)methoxy)-5a,6,7,8,9,10-hexahydro-5H-4-oxa-3,10a,11,13,14-pentaaza-6,9-methanonaphtho[1,8-ab]heptalen-2-yl)-5-ethynyl-6-fluoronaphthalen-2-ol], in assay [1], the IC50 amounted to 4 nM. Moreover, in assay [2], the EC50 was 81 nM.

In the case of `Fc1ccc(-c2nc3c4c(nc(OC[C@@]56CCCN5C[C@H](F)C6)nc4c2F)N2C[C@H]4CC[C@H](N4)[C@H]2CO3)c2ccccc12` [Example 72, (5aS,6S,9R)-1-fluoro-2-(4-fluoronaphthalen-1-yl)-12-(((2R,7aS)-2-fluorotetrahydro-1H-pyrrolizin-7a(5H)-yl)methoxy)-5a,6,7,8,9,10-hexahydro-5H-4-oxa-3,10a,11,13,14-pentaaza-6,9-methanonaphtho[1,8-ab]heptalene], the IC50 in assay [1] was found to be 510 nM. Besides, the concentration for a half-maximal effect (EC50) in assay [2] is above 1000 nM.

In assay [1], `C#Cc1c(F)ccc2cc(O)cc(-c3nc4c5c(nc(OC[C@@]67CCCN6C[C@H](F)C7)nc5c3F)N3C[C@H]5CC[C@H](N5)[C@@H]3CCO4)c12` [Example 77, 5-ethynyl-6-fluoro-4-((6aS,7S,10R)-1-fluoro-13-(((2R,7aS)-2-fluorotetrahydro-1H-pyrrolizin-7a(5H)-yl)methoxy)-5,6,6a,7,8,9,10,11-octahydro-4-oxa-3,11a,12,14,15-pentaaza-7,10-methanocyclohepta[4,5]cycloocta[1,2,3-de]naphthalen-2-yl)naphthalen-2-ol] came in with an IC50 of 6 nM. Also, the EC50 in assay [2] stood at 83 nM.

`C#Cc1c(F)ccc2cc(O)cc(-c3nc4c5c(nc(OC[C@@]67CCCN6C[C@H](F)C7)nc5c3F)N3C[C@H]5CC[C@H](N5)[C@@H]3[C@H](C)C4)c12` [Example 79, 5-ethynyl-6-fluoro-4-((5R,5aS,6S,9R)-1-fluoro-12-(((2R,7aS)-2-fluorotetrahydro-1H-pyrrolizin-7a(5H)-yl)methoxy)-5-methyl-4,5,5a,6,7,8,9,10-octahydro-3,10a,11,13,14-pentaaza-6,9-methanonaphtho[1,8-ab]heptalen-2-yl)naphthalen-2-ol] came in with an IC50 in assay [1] of 7 nM. In assay [2], this compound registered a concentration for a half-maximal effect (EC50) of 15.3 nM.

In the case of `C#Cc1c(F)ccc2cc(O)cc(-c3nc4c5c(nc(OC[C@@]67CCCN6C[C@H](F)C7)nc5c3F)N3C[C@H]5CC[C@H](N5)[C@H]3[C@@H](C(F)F)O4)c12` [Example 82, 4-((5S,5aS,6S,9R)-5-(difluoromethyl)-1-fluoro-12-(((2R,7aS)-2-fluorotetrahydro-1H-pyrrolizin-7a(5H)-yl)methoxy)-5a,6,7,8,9,10-hexahydro-5H-4-oxa-3,10a,11,13,14-pentaaza-6,9-methanonaphtho[1,8-ab]heptalen-2-yl)-5-ethynyl-6-fluoronaphthalen-2-ol], the IC50 in assay [1] came out at 11.4 nM. In assay [2], this compound had an EC50 of 104 nM.

In assay [1], `C#Cc1c(F)ccc2cccc(-c3nc4c5c(nc(OC[C@@]67CCCN6[C@H](COC(C(F)(F)F)(C(F)(F)F)C(F)(F)F)CC7)nc5c3F)N3C[C@H]5CC[C@H](N5)[C@@H]3[C@@H](C)C4)c12` [Example 83, (5S,5aS,6S,9R)-2-(8-ethynyl-7-fluoronaphthalen-1-yl)-1-fluoro-12-(((3S,7aS)-3-(((1,1,1,3,3,3-hexafluoro-2-(trifluoromethyl)propan-2-yl)oxy)methyl)tetrahydro-1H-pyrrolizin-7a(5H)-yl)methoxy)-5-methyl-4,5,5a,6,7,8,9,10-octahydro-3,10a,11,13,14-pentaaza-6,9-methanonaphtho[1,8-ab]heptalene] had a 50% inhibitory concentration (IC50) of 3.2 nM. For the same compound, the EC50 in assay [2] was 67.4 nM.

Take `C#Cc1c(F)ccc2cccc(-c3nc4c5c(nc(OC[C@@]67CCCN6C[C@H](F)C7)nc5c3F)N3C[C@H]5CC[C@H](N5)[C@@H]3[C@@H](C)C4)c12` [Example 84, (5S,5aS,6S,9R)-2-(8-ethynyl-7-fluoronaphthalen-1-yl)-1-fluoro-12-(((2R,7aS)-2-fluorotetrahydro-1H-pyrrolizin-7a(5H)-yl)methoxy)-5-methyl-4,5,5a,6,7,8,9,10-octahydro-3,10a,11,13,14-pentaaza-6,9-methanonaphtho[1,8-ab]heptalene]: in assay [1], the IC50 amounted to 3.9 nM. The same compound registered an EC50 in assay [2] of 27.7 nM.
